Data: patent publication US11591323B2, “Muscarinic agonists as non-steroidal and non-opioid analgesics and methods of use thereof” (Barry University, priority 2019, dated 2023)

Tests used:
M3 muscarinic receptor = M3 muscarinic receptor (Homo sapiens, UniProt P20309); assay: inhibition of forskolin-stimulated cAMP, M3 CHO cells (M3Gi); type: cell-based; design: host or cells: CHO cells, stably transfected; settings: for Emax: CHO; for Emax / EC50 / τ / RAi / Kd: M3Gi (↓cAMP); for Emax / EC50 / τ / Kd: Table 8; for effect on forskolin-stimulated production of cAMP: M3, non-preferential response, in words; for RAi: Table 8, relative to carbachol; for Kd: read-out: pKA (converted)
Experimental: (§1) Since activation of phospholipase C (PLC) via M2 and M4 receptors is weak, cells were transferred with G15 G-protein to facilitate coupling.
(§2) To determine level of cAMP, cells in suspension were pre-incubated for 1 h with 0.4 μM [^3H]adenine, washed, and incubated for 10 min in the presence of isobutylmethylxanthine and 10 μM forskolin. […] Incubation was ended by addition of 0.2 ml of 2.5 M HCl to the samples. Samples were applied to alumina columns (1.5 g of alumina per column), washed with 2 ml ammonium acetate (pH=7.0) and eluted from columns with 4 ml ammonium acetate and measured by liquid scintillation spectrometry. […] The incubation was stopped by addition of 0.5 ml of chloroform methanol HCl mixture (2:1:0.1). After separation of water and organic phases, 0.6 ml of water phase was applied to Dowex columns (1.5 g of Dowex per column), washed by 20 ml of 60 mM ammonium formate/5 mM sodium borate buffer and eluted from columns with 4 ml of 1M ammonium formate/0.1 formic acid buffer and measured by liquid scintillation spectrometry.
(§3) Measurements of the production of cAMP and inositol phosphates: Levels of second messengers cAMP and inositol phosphates were determined in radiochemical chromatography assays as described previously. To determine level of cAMP, cells in suspension were pre-incubated for 1 h with 0.4 μM [^3H]adenine, washed, and incubated for 10 min in the presence of isobutylmethylxanthine and 10 μM forskolin. […] Incubation was ended by addition of 0.2 ml of 2.5 M HCl to the samples. Samples were applied to alumina columns (1.5 g of alumina per column), washed with 2 ml ammonium acetate (pH=7.0) and eluted from columns with 4 ml ammonium acetate and measured by liquid scintillation spectrometry. […] For this purpose, new CHO cell lines stably expressing promiscuous G15 G-protein and M2 or M4 receptor were generated by transfection with pCMV/hygro vector and hygromycin selection. To determine the rate of formation of inositol phosphates IPX, suspended cells were pre-incubated with 0.1 μM [^3H]myo-inositol for 60 min, washed, and incubated with 10 mM LiCl for 15 min. […] The incubation was stopped by addition of 0.5 ml of chloroform methanol HCl mixture (2:1:0.1). After separation of water and organic phases, 0.6 ml of water phase was applied to Dowex columns (1.5 g of Dowex per column), washed by 20 ml of 60 mM ammonium formate/5 mM sodium borate buffer and eluted from columns with 4 ml of 1M ammonium formate/0.1 formic acid buffer and measured by liquid scintillation spectrometry.
(§4) For bi-phasic response, curves were inhibitory and stimulatory phase were fitted separately. Operational Model of Functional Agonism
(§5) [formula] where y is functional response at concentration of tested compound x, EMAX is maximal response of the system, KA is equilibrium dissociation constant and nH is slope factor. Eq. 5 was fitted to data from functional experiments. Eq. 5 was fitted to data by the two-step procedure described earlier. […] In the second step, Eq. 5 with EMAX fixed to the value determined in the first step was fitted to individual experimental data sets. Relative Intrinsic Activity
(§6) Muscarinic receptors are also able to stimulate non-preferential signalling pathways.

M1 muscarinic receptor = biological target: T1, M1 muscarinic receptor (Homo sapiens, UniProt P11229); assay: inhibition of forskolin-stimulated cAMP, M1 CHO cells (M1Gi); type: cell-based; design: host or cells: CHO cells, stably transfected; settings: for Emax: CHO; for Emax / EC50 / τ / RAi / Kd: M1Gi (↓cAMP); for Emax / EC50 / τ / Kd: Table 8; for effect on forskolin-stimulated production of cAMP: M1, non-preferential response, in words; for RAi: Table 8, relative to carbachol; for Kd: read-out: pKA (converted)
T1 sequence (P11229 1-460): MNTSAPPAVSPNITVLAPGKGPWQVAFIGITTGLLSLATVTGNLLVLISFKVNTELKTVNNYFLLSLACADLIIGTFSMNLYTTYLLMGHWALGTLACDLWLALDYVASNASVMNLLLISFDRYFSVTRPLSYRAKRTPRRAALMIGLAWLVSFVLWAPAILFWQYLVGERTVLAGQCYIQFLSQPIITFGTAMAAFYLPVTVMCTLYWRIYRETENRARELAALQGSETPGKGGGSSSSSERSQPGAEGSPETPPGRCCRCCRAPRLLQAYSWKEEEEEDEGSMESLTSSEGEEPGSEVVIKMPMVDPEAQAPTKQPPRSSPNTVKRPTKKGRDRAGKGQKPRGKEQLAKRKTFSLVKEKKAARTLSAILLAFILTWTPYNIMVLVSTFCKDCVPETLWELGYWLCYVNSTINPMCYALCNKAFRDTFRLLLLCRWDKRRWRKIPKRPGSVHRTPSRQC
Experimental: as §1, §2, §3, §4, §5, §6

M3 muscarinic receptor, sequence (P20309 whole entry): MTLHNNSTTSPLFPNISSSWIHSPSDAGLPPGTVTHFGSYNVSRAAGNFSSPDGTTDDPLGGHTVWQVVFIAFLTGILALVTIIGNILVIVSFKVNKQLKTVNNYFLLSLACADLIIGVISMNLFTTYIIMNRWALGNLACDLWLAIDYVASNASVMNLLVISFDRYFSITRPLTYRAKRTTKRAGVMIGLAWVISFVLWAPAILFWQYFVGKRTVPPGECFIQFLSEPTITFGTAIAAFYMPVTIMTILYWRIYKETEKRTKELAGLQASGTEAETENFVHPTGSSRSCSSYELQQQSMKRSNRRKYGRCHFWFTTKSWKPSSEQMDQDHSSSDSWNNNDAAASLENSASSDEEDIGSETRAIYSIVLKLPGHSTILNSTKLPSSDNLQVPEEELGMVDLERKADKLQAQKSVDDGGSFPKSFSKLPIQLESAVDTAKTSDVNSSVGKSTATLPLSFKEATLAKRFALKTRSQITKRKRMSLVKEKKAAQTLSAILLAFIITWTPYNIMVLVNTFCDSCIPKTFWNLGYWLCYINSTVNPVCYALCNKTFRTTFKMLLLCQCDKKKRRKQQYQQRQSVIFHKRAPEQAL

| SMILES | Emax (M3 muscarinic receptor) [%] | effect on forskolin-stimulated production of cAMP (M3 muscarinic receptor) | EC50 (M3 muscarinic receptor) [µM] | τ (M3 muscarinic receptor) | RAi (M3 muscarinic receptor) | Kd (M3 muscarinic receptor) [µM] | Emax (M1 muscarinic receptor) [%] | effect on forskolin-stimulated production of cAMP (M1 muscarinic receptor) | EC50 (M1 muscarinic receptor) [µM] | τ (M1 muscarinic receptor) | RAi (M1 muscarinic receptor) | Kd (M1 muscarinic receptor) [µM] |
| --- | --- | --- | --- | --- | --- | --- | --- | --- | --- | --- | --- | --- |
| C[N+]1(Cc2cccs2)CC=CCC1.[I-] (stereo not drawn) [Compound 7A, 1-methyl-1-[(thiophen-2-yl)methyl]-1,2,3,6-tetrahydropyridin-1-ium iodide] | 16 ± 1 | inhibited cAMP production | 8.71 | 0.22 ± 0.02 | +inf. | 10 | 30 ± 3 | inhibited cAMP production | 7.94 | 0.52 ± 0.05 | +inf. | 12.6 |
| C1=CCN(Cc2cccs2)CC1.Cl [Compound 6A, 1-[(thiophen-2-yl)methyl]-1,2,3,6-tetrahydropyridin-1-ium chloride] | 13 ± 1 | inhibited cAMP production | 7.76 | 0.17 ± 0.02 | +inf. | 10 | 26 ± 2 | inhibited cAMP production | 11.7 | 0.42 ± 0.04 | +inf. | 15.8 |
